According to patent US11332461B2, “2-(1H-pyrazol-3-yl) phenol compound and use thereof” (BEIJING JIALIN PHARMACEUTICAL INC., priority 2017, dated 2022):

Experiments:
[1] = target: BRM protein (Homo sapiens, UniProt P51531); assay: Ki of compounds (Table 1; no method described); format: binding
[2] = tested on: H1299 cells (BRG1−/BRM+ cell line); assay: Cell viability test, tetrazolium salt (MTT) method; format: cell-based; settings: Homo sapiens, NCI-H1299, cultured 3-4 days with compound, OD 490 nm
Excerpt: A tetrazolium salt (MTT) method is used for determining the pharmacodynamics activity of the compounds of the present invention by using H1299 cells as the cell line, wherein the cell line has deletion of the BRG1 gene (BRG1−), and has no deletion of the BRM gene (BRM+). That is, the cells of the cell line cannot express a BRG1 protein, but can normally express a BRM protein. Small molecules that could prevent the BRM protein from interacting with the chromosomes in the cells, could prevent the BRM protein from exerting functions in the cells. According to the law of synergistic lethality, in a BRG1-gene-deleted cell, if the function of the BRM protein is blocked, cell death will be caused, thereby achieving the function that the small molecules kill cancer cells.
The specific steps of the test are as follows: • (1) different experimental cell lines are subcultured into a 96-well plate, and to prevent a marginal effect, the peripheries of the 96-well plate are added with 100 μL of PBS as a blank, wherein the cell line as used is H1299 cells (BRG1−/BRM+cell line); • (2) when the cells are in adherent growth to be 40-50%, different concentrations of drug molecules and DMSO as controls are added, the cells treated with the small molecules continue to be cultured for 3-4 days, and the medium is replaced by a medium supplemented with small molecules during the culture; • (3) after the 96-well plate treated with DMSO in the control group is full of the cells, each well is added with 20 μL of a MTT mother liquor (5 mg/mL); • (4) the cell plate is placed back into a […] incubator of 37° C. and continue to be incubated for 4 hours; • (5) the MTT solution is pipetted off, and each well is added with 150 μL DMSO; • (6) the 96-well plate is placed in a shaker at room temperature with protection from light for 15 min, until purple crystals are completely dissolved. • (7) The absorbance (OD) of each well is determined by a SpectraMax M5 multi-well plate reader (Molecular Devices, USA) at a wavelength of 490 nm.
According to a conventional detection method, the EC50 values of respective compounds (small molecules) are determined, and the results are summarized in Table 1.

Chain of BRM protein (P51531 whole entry): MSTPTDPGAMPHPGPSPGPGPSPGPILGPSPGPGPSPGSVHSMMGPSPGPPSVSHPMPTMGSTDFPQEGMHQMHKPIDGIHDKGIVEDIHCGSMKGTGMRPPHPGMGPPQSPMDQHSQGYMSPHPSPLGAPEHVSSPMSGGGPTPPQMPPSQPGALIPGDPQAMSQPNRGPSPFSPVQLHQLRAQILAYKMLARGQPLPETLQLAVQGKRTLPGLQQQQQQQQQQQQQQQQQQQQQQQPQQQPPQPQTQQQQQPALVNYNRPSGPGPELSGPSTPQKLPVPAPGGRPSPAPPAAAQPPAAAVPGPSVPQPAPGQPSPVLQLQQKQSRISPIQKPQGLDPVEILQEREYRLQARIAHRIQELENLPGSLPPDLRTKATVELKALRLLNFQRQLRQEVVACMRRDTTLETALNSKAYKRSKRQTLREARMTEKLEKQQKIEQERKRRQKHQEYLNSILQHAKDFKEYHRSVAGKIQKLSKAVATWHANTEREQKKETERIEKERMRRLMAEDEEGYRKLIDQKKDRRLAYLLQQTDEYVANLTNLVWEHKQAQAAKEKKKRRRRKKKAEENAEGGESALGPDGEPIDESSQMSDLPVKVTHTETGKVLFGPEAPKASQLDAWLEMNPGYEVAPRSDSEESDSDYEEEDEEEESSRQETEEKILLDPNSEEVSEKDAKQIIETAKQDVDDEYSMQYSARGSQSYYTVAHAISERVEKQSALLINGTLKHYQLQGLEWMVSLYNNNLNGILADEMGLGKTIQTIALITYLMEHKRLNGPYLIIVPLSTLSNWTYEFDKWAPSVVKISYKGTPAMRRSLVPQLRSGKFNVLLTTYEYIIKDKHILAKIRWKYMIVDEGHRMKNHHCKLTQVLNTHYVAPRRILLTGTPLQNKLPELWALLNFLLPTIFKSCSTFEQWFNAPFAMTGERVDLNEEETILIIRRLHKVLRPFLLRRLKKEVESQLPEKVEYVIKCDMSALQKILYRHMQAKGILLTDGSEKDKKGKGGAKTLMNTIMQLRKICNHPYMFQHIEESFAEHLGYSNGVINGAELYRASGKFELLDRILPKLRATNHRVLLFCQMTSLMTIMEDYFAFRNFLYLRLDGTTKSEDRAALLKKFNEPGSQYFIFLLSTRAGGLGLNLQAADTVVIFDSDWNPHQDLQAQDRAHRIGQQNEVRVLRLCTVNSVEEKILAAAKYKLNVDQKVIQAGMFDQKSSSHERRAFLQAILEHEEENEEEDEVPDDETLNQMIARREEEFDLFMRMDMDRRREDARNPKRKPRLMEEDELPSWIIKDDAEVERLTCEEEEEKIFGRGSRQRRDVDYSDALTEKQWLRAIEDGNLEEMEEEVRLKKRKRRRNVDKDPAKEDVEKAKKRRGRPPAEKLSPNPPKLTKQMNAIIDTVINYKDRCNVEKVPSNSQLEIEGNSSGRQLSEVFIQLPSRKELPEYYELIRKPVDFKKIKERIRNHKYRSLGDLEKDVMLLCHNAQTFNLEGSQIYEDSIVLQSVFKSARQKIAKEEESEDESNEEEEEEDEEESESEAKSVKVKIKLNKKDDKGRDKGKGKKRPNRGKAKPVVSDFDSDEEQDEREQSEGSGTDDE

Row | SMILES | Ki [1] [µM] | EC50 [2] [µM]
1 | O=C(NCc1ccc(O)cc1)c1cc(-c2cc(F)ccc2O)n[nH]1 [BRM2-138] | 2 | > 20
2 | CN(Cc1ccccc1)C(=O)c1cc(-c2cc(F)ccc2O)n[nH]1 [BRM2-143] | 2.8 | 17.3
3 | O=C(Cc1ccc(O)cc1)Nc1cc(-c2cc(F)ccc2O)n[nH]1 [BRM2-164] | 6.9 | > 20
4 | O=C(NCCc1ccc(Cl)cc1)c1cc(-c2cc(F)ccc2O)n[nH]1 [BRM2-140] | 2 | 14.7
5 | Nc1c(F)ccc(O)c1-c1cc(-c2ccc(Br)cc2)[nH]n1 [BRM2-4] | 1.8 | 6.7
6 | CS(=O)(=O)c1ccc(-c2ccc(-c3cc(-c4cc(F)ccc4O)n[nH]3)cc2)cc1 [BRM2-30] | 2 | 10.5
7 | O=C(Cc1ccc(F)cc1)Nc1cc(-c2cc(F)ccc2O)n[nH]1 [BRM2-168] | 2.5 | 13.4
8 | Oc1ccc(F)cc1-c1cc(-c2ccc(N3CCCCC3)cc2)[nH]n1 [BRM2-33] | 2.7 | 15
9 | Nc1cc(-c2cc(F)ccc2O)n[nH]1 [BRM2-160] | 3.2 | 18.2
10 | CC(C)(C)c1ccc(-c2cc(-c3cc(F)ccc3O)n[nH]2)cc1 [BRM2-8] | 2.2 | 8.5
11 | O=C(Nc1cc(-c2cc(F)ccc2O)n[nH]1)c1cnccn1 [BRM2-166] | 1.7 | 7.3
12 | CN1CCN(c2ccc(-c3cc(-c4cc(F)ccc4O)n[nH]3)cc2)CC1 [BRM2-32] | 3.7 | 5.8
13 | Cc1cccc(C)c1-c1ccc(-c2cc(-c3cc(F)ccc3O)n[nH]2)cc1 [BRM2-27] | 2.7 | > 20
14 | COC(=O)C1CCCN1C(=O)c1cc(-c2cc(F)ccc2O)n[nH]1 (stereo not shown) [BRM2-150] | 1.8 | 10.3
15 | CCc1ccc(-c2cc(-c3cc(F)ccc3O)n[nH]2)cc1 [BRM2-9] | 4.6 | > 20
16 | O=C(Nc1ccc(-c2cc(-c3cc(F)ccc3O)n[nH]2)cc1)c1c(F)cccc1F [BRM2-105] | 4.1 | > 20
17 | CCN(Cc1ccccc1)C(=O)c1cc(-c2cc(F)ccc2O)n[nH]1 [BRM2-144] | 4.6 | > 20
18 | CC(C)N(Cc1ccccc1)C(=O)c1cc(-c2cc(F)ccc2O)n[nH]1 [BRM2-145] | 5.3 | > 20
19 | CN1CCN(c2cccc(-c3cc(-c4cc(F)ccc4O)n[nH]3)c2)CC1 [BRM2-39] | 1.8 | 9.3
20 | O=C(Nc1ccc(-c2cc(-c3cc(F)ccc3O)n[nH]2)cc1)c1cccc(F)c1F [BRM2-114] | 3 | 11.4
21 | Nc1cccc(O)c1-c1cc(-c2ccc(Br)cc2)[nH]n1 [BRM2-6] | 2.3 | 12
22 | O=C(Nc1cc(-c2cc(F)ccc2O)n[nH]1)c1ccccc1 [BRM2-162] | 6.8 | > 20
23 | Cc1ccccc1-c1cc(-c2cc(F)ccc2O)n[nH]1 [BRM2-11] | 1.6 | > 20
24 | O=C(NCc1ccc(F)cc1)c1cc(-c2cc(F)ccc2O)n[nH]1 [BRM2-136] | 3 | 18
25 | Oc1ccc(F)cc1-c1cc(N2CC3CC2CN3c2ccccn2)[nH]n1 (stereo not shown) [BRM2-41] | 2.7 | 13.5
26 | COc1cccc(C(=O)Nc2ccc(-c3cc(-c4cc(F)ccc4O)n[nH]3)cc2)c1OC [BRM2-113] | 2 | > 20
27 | O=C(Nc1cc(-c2cc(F)ccc2O)n[nH]1)c1ccc(O)cc1 [BRM2-163] | 4.4 | 17.2

Molecules with a lower Ki [1], results first:

Row | Ki [1] [µM] | EC50 [2] [µM] | SMILES
28 | 1.5 | 3.3 | Nc1c(F)ccc(O)c1-c1cc(-c2ccc(-c3ccc(F)cc3)cc2)[nH]n1 [BRM2-22]
29 | 1.4 | 7.6 | CN1CCN(c2ccccc2-c2cc(-c3cc(F)ccc3O)n[nH]2)CC1 [BRM2-34]
30 | 1.2 | 8.9 | COC(=O)C(CCS(C)(=O)=O)NC(=O)c1cc(-c2cc(F)ccc2O)n[nH]1 (stereo not shown) [BRM2-149]
31 | 1.1 | > 20 | O=C(NCCc1ccc(O)cc1)c1cc(-c2cc(F)ccc2O)n[nH]1 [BRM2-137]
32 | 0.9 | 1.7 | CN1CCCN(c2ccc(-c3cc(-c4cc(F)ccc4O)n[nH]3)cc2)CC1 [BRM2-31]
33 | 0.9 | 6.5 | O=C(Nc1ccc(-c2cc(-c3cc(F)ccc3O)n[nH]2)cc1)c1ccccn1 [BRM2-112]
34 | 0.8 | 3.8 | Cc1ccc(C(=O)Nc2ccc(-c3cc(-c4cc(F)ccc4O)n[nH]3)cc2)cn1 [BRM2-111]
35 | 0.8 | 4.3 | O=C(NCCc1ccc(F)cc1)c1cc(-c2cc(F)ccc2O)n[nH]1 [BRM2-157]
36 | 0.7 | 2.8 | O=C(Nc1ccc(-c2cc(-c3cc(F)ccc3O)n[nH]2)cc1)c1ccnc(Cl)c1 [BRM2-123]
37 | 0.6 | 1.5 | O=C(Nc1ccc(-c2cc(-c3cc(F)ccc3O)n[nH]2)cc1)c1cnccn1 [BRM2-124]
38 | 0.6 | 2.4 | O=C(Nc1ccc(-c2cc(-c3cc(F)ccc3O)n[nH]2)cc1)c1cccnc1 [BRM2-121]
39 | 0.5 | 2.5 | COC(=O)C(Cc1cnc[nH]1)NC(=O)c1cc(-c2cc(F)ccc2O)n[nH]1 (stereo not shown) [BRM2-152]
40 | 0.4 | 1.7 | NC(=O)CCC(NC(=O)c1cc(-c2cc(F)ccc2O)n[nH]1)C(=O)N1CCOCC1 (stereo not shown) [BRM2-156]
41 | 0.2 | 0.9 | O=C(Nc1ccc(-c2cc(-c3cc(F)ccc3O)n[nH]2)cc1)C12CC3CC(CC(C3)C1)C2 [BRM2-106]
